Measured values from patent publication US20020155064A1, “Method for detection and localization of malignant human tumours” (priority 1997, published 2002).

System: neurotensin receptors
Assay: Receptor autoradiography displacement of [125I]-neurotensin binding on tumour tissue sections
Conditions: tissue sections from human differentiated ductal pancreatic adenocarcinoma; 40,000 cpm/100 µl [125I]-neurotensin, increasing concentrations of unlabelled peptide; 4° C., 60 minutes; FIG. 1
Procedure: Receptor autoradiography is performed on 10- and 20-mm thick cryostat sections of the various tumour samples, as described by Reubi et al. (Cancer Res. 1990, 50, 5969-5977). […] After incubation, the sections are washed for eight minutes at 4° C. in four consecutive baths containing 50 mM Tris-HCl buffer, pH 7.6, dipped in ice-cold water, and then quickly dried in a refrigerator under a stream of cold air. The sections are subsequently exposed to a ^3H-Ultrofilm for 1 week, to detect the precise location of the radioactivity. […] Each point represents the optical density of binding measured in the tumour area. Non-specific binding is subtracted from all values.

Ac-Arg-Arg-Pro-Tyr-Ile-Leu-OH [acetyl-neurotensin 8-13]
displacement of [125I]-neurotensin binding: Complete displacement
